Results taken from the NIST ThermoML archive (doi:10.1021/je9004382).
± gives the expanded uncertainty stated by the source.

Experiments:
[1] = Crystal; DTA
[2] = Molar enthalpy of transition or fusion; details: Crystal; Adiabatic calorimetry

Normal melting temperature [1] [°C]	Molar enthalpy of transition or fusion [2] [kJ/mol]	SMILES
137.56 ± 1.1	30.2 ± 1.8	COC(=O)C=Cc1ccc(O)cc1 [2-propenoic acid, 3-(4-hydroxyphenyl)-, methyl ester]
88.64 ± 1.2	29.9 ± 2.8	COC(=O)/C=C/c1cc(OC)c(O)c(OC)c1 [3,5-dimethoxy-4-hydroxy cinnamic acid methyl ester]
62.56 ± 0.95	25.8 ± 1.8	COC(=O)C=Cc1ccc(O)c(OC)c1 [methyl 3-(4-hydroxy-3-methoxyphenyl)-2-propenoate]
